Earlier results in US7417165B2, “Crystalline forms of pregabalin” (Teva Pharmaceutical Industries Ltd., priority 2005, dated 2008).

Experiments:
seizure = details: background statement, no data
[1] = tested on: GAD (L-glutamic acid decarboxylase); details: background statement, no data

In the case of `CC(C)C[C@H](CN)CC(=O)O` [(S)-Pregabalin, (S)-(+)-3-(aminomethyl)-5-methylhexanoic acid], the “protective effect on seizure” value (seizure) is given as “dose dependent protective effect” and the “activation of GAD (L-glutamic acid decarboxylase)” value [1] is given as “activate”.
